US20250176545A1, “LIQUID PESTICIDAL COMPOSITION” (SUMITOMO CHEMICAL COMPANY, LIMITED, priority 2022, published 2025)

Assay: Test Example 2: identification of decomposition products of compound (I) by mass spectra
Assay type: physicochemical
Settings: composition with compound (I-A), compound (I-B), dicamba diglycolamine salt, acetic acid and potassium hydroxide, 50° C. for 8 weeks
Protocol: Test Example 2: Identification of Decomposition Product of Compound (I)
Mass spectra were measured for compositions containing the compound (I-A), the compound (I-B), a dicamba diglycolamine salt, acetic acid and potassium hydroxide, which were left to stand in an incubator at 50° C. for 8 weeks.
The decomposition product a is obtained as a result of ring-opening of a uracil ring due to the cleavage of a C—N bond (bond between an N atom at the 3-position and a C atom at the 4-position) included in an imide structure constituting a uracil ring structure of the compound (I-A), and a bond between an N atom at the 1-position and a C atom at the 6-position. The decomposed product b is obtained as a result of the addition of diglycolamine (DGA) to the terminal ethyl ester moiety, in addition to the ring-opening of the uracil ring of the compound (I-A).

SMILES	decomposition products confirmed
CCOC(=O)COc1ncccc1Oc1cc(-n2c(=O)cc(C(F)(F)F)n(C)c2=O)c(F)cc1Cl [compound (I-A)]	decomposition products a and b
C#CCN1C(=O)COc2cc(F)c(N3C(=O)C4=C(CCCC4)C3=O)cc21 [compound (I-B)]	decomposition product c
